Measured values: patent US10973771B2, “Method of making particles for use in a pharmaceutical composition” (VECTURA LIMITED, priority 2000, dated 2021)

Assay: Fine particle fraction, capsule fired from twin stage impinger (TSI)
Type: physicochemical
Conditions: 20mg capsule fired from a twin stage impinger
Experimental: The 3:1 and the 19:1 blends were then each loaded into a 20mg capsule and fired from a twin stage impinger. A sample of unprocessed salbutamol sulphate was also fired from the TSI to provide a comparison.

## salbutamol sulphate
  Fine Particle Fraction %: 28%
